# What was measured:
# CD133 (+) Huh7 cells [1] = assay: Tumor spheroid formation assay; type: cell-based, human; settings: CD133 (+) group; ATRA 5 μg/ml, SAHA 0.5 μg/ml; 2 weeks
# Protocol: Freshly sorted CD133(+)/(−) Huh7 cells were plated in a low binding culture plate (NUNC 145397) containing 100 cells per well in 100 μl of culture medium with ATRA (5 μg/ml), SAHA (0.5 μg/ml), or a combination of both. After 2 weeks, colony numbers were counted.
# CD133 (+) Huh7 cells [2] = assay: Anchorage-independent growth assay in soft agar; type: cell-based, human; settings: retinoic acid 5 μg/ml, SAHA 0.5 μg/ml; 2 weeks
# Protocol: Freshly sorted CD133 (+)/(−) Huh7 cells were mixed with 0.35% agarose containing 1000 cells per well in culture medium with retinoic acid (5 μg/ml), SAHA (0.5 μg/ml), or a combination of both. After 2 weeks, the colony numbers were counted.
# patient-derived TICs = assay: Subcutaneous xenograft of patient-derived TICs in NSG mice; type: in vivo, mouse; settings: no ATRA, i.p.
# Protocol: To establish prognostic biomarkers for the best combination chemotherapy, five different patient-derived TICs were tested for responses as xenografts in NSG mice for the best combination chemotherapy based on mutation/transcriptome subtypes. Anti-tumorigenic ability by ATRA+SAHA targeting TICs encapsulated with SAHA was validated (Table 3). […] As placebo treatment, solvent (DMSO) in an equal total volume (0.2 ml/mouse) was injected. Tumor growth kinetics was studied. Combination of ATRA with SAHA further inhibited the self-renewal abilities of TICs in vivo (FIG. 17E).
# CD133 (+) Huh7 cells [3] = assay: In vivo tumorigenicity, CD133 (+) Huh7 cells in NOG mice; set-up: species or system mouse
# Protocol: The TUNEL staining was performed according to the manufacturer's instructions (4810-30-K, TREVIGEN). In brief, paraffin-embedded tumor sections from each group were de-paraffinized, re-hydrated, and washed twice in PBS. Samples were covered with Proteinase K solution for 30 minutes at room temperature and then washed two times in deionized water. Slides were immersed in quenching solution for 5 minutes at room temperature and then washed in PBS. Slides were incubated in TdT labeling buffer for 5 minutes, immersed with labeling reaction mix, and incubated at 37° C. for 1 hour in a humidity chamber. Samples were immersed in TdT stop buffer for 5 minutes and then washed twice in deionized water for 5 minutes each at room temperature. Samples were covered with Strep-HRP solution and incubated for 10 minutes at 37° C. and washed twice in PBS. Samples were incubated in DAB solution for 5 minutes and then washed in deionized water several times. The samples were counterstained with Methyl Green and mounted on slides for observation.
# CD133 was conjugated to the terminal amine functionality on a polyethylene glycol block of polylactide-polyethylene glycol (PLA-PEG) as previously described (Swaminathan et al., 2013). PLGA (30 mg) was dissolved in 1 ml chloroform containing ATRA (6 mg). An oil-in-water emulsion was formed by emulsifying the polymer drug solution in 6 ml of 2.5% w/v aqueous PVA solution by sonication (Sonicator®XL, Misonix, N.Y.) for 5 minutes in an ice bath. The PLA-PEG-CD133 conjugate was dissolved in chloroform (8 mg/100 μl) and added to the oil-in-water emulsion with stirring. The emulsion was stirred for 18 hours at ambient conditions followed by 2 hours under vacuum to remove residual chloroform. Nanoparticles were recovered by ultracentrifugation (35,000 rpm for 35 minutes at 4° C.; OptimaTMLE-80K, Beckman, Palo Alta, Calif.) and washed three times with deionized water to remove excess PVA and unencapsulated drugs. The nanoparticle suspension was then lyophilized (Labconco, FreeZone 4.5, Kansas City, Mo.). Before injection, the lyophilized nanoparticles were re-dissolved in PBS and filtered with a 0.22 micron filter.
# A half million freshly sorted CD133 (+) TICs were suspended in 100 μl of Matrigel™ (BD) and injected subcutaneously into NOD/Shi-scid/IL-2Rγ^null(NOG) mice, six mice per group. After the tumor volume reached 100 mm^3, animals received one intravenous dose of CD133-conjugated RA nanoparticle (5 μg/ml) and SAHA (0.5 μg/ml) daily. The animals were monitored regularly for tumor growth and survival every day. All animals work was performed according to national and international guidelines. Animal studies were based on a protocol approved by the Institutional Animal Care and Use Committee at University of Southern California.
# Nanog = assay: Nanog-GFP reporter cell screening; type: cell-based, mouse; settings: TICs with lentivirus Nanog-GFP reporter
# Protocol: The Nanog-GFP liver cancer stem cell line was transduced with pGreenZeo-Nanog transcriptional reporter lentivirus vector (System Biosciences SR10031VA-1). The transduced cells were positively selected with zeomycin (10 μg/ml) and further sorted for the GFP-high population (˜20% of total population) for drug screening. Nanog-GFP liver cancer stem cells were then seeded in 100 μl medium containing 5000 cells per well in a 96-well plate. After 16 hours, 0.5 μl of a […] compound was added to each well, resulting in a 10 μg/ml final concentration for most compounds. After 12 hours, the cells were fixed with 1% Paraformadehyde and stained with DAPI; compounds were screened in duplicate. The GFP and DAPI images were acquired using a BD Pathway Bioimaging Systems instrument. Z-score was calculated from the data using the formula z=(X−u)/s.d., where u is the mean, s.d. is the standard deviation of the whole population and X is the sample value calculated based on the ratio of GFP intensity to DAPI intensity. The z-score of selected hits must be less than −1.0. The average of z-score of vehicle control is 2.0±1.04.
# [4] = tested on: Huh7, Hep3B, HepG2, human CSCs and mouse CSCs; assay: Combination dose determination, cell viability of HCC cells; type: cell-based
# Protocol: Freshly sorted CD133 (+) Huh7 or mouse TICs were plated in 100 μl of medium containing 5000 cells per well in a 96-well plate. After 16 hours, 0.5 μl of a 2 μg/ml, 1 μg/ml, 0.2 μg/ml, 0.1 μg/ml, 0.02 μg/ml, or 0.01 μg/ml compound was added to each well in triplicate, resulting in a 10 μg/ml, 5 μg/ml, 1 μg/ml, 0.5 μg/ml, 0.1 μg/ml, and 0.05 μg/ml final concentration for most compounds, respectively. After 48 hours, the cells were either measured for cell viability by Cell-Glo® Reagent (Promega), or fixed with 1% PFA (paraformaldehyde) and stained with DAPI for high-throughput screening.
# PTEN = PTEN 3′-UTR luciferase reporter and western blot of PTEN-FOXO pathway; type: cell-based; settings: FIG. 47D
compound,measurement,setting,value
"O=C(CCCCCCC(=O)Nc1ccccc1)NO [SAHA, suberoylanilide hydroxamic acid]","reduction of colony numbers, tumor spheroid formation",CD133 (+) Huh7 cells [1],66%
same,"reduction of colony numbers, anchorage independent growth in soft agar",CD133 (+) Huh7 cells [2],50%
same,"anti-tumorigenic ability, % (animals/total)",patient-derived TICs; SAHA 8 mg/kg (human: 300 mg),10% (2/20)
same,"anti-tumorigenic ability, % (animals/total)",patient-derived TICs; SAHA 10 mg/kg (human: 400 mg),5% (1/20)
same,"anti-tumorigenic ability, % (animals/total)",patient-derived TICs; SAHA 12 mg/kg (human: 500 mg),10% (2/20)
same,tumor growth,"CD133 (+) Huh7 cells [3]; ATRA 5 μg/ml in CD133 antibody-conjugated nanoparticles, SAHA 0.5 μg/ml, after 4 days of treatment",did not reduce or even promote tumor growth
same,"tumor morphology, hematoxylin and eosin stained sections","CD133 (+) Huh7 cells [3]; NOG mice, CD133 (+) Huh7 tumors",did not induce cell death of tumor cells
same,Nanog expression,Nanog,suppressed Nanog expression
same,cell growth / viability in vitro,[4],failed to reduce cell growth in vitro
same,luciferase-PTEN 3′-UTR reporter activity,PTEN,increased

# Source: US20160304970A1, “GENE BIOMARKER TO DIAGNOSE METASTIC LIVER CANCER AND METHODS FOR TARGETING THE SAME” (University of Southern California, priority 2015, published 2016)
